Measured values from article PMC8016939 (2021).

Experiments:
[1] = system: Baby Spinach (bSP) (RNA, aptamer) GGUGAAGGACGGGUCCAGUAGUUCGCUACUGUUGAGUAGAGUGUGAGCUCC; test: fluorescence titration, 1:1 model; conditions: 50 mM KCl, 5 mM MgCl2; 10 mM HEPES pH 7.5, 2 µM DFHBI, flow-cell; apparent (one-site model)
[2] = system: Baby Spinach (bSP) (RNA, aptamer) GGUGAAGGACGGGUCCAGUAGUUCGCUACUGUUGAGUAGAGUGUGAGCUCC; test: fluorescence titration plus absorption spectra, multiple-site model; conditions: 50 mM KCl, 5 mM MgCl2; 10 mM HEPES pH 7.5, 2 µM DFHBI, flow-cell; site 1 of 2 (fluorescent complex); derived as K x p, p = 1.8

CC1=N/C(=C\c2cc(F)c(O)c(F)c2)C(=O)N1C
Kd [1]: 4.4 µM | Kd [2]: 7.9 ± 0.2 µM
